Values joined by “and” are separate entries in the source; they are usually repeats but may differ in a detail not shown here. Equal values may be shown once. Read-outs that look alike come from different tables or passages of the source.
Columns and labels:
METTL3 [1] = system: METTL3; parameters: method as in PMID 38194973; settings: cited from earlier work
[2] = target: T1, VCB (VHL, elongin B, elongin C) (Homo sapiens, UniProt P40337); assay: FP displacement assay with VCB (binary and ternary KD, cooperativity); assay type: binding
T1 construct: VHL (UniProt: P40337, aa 1–213); His6 (N); made in house; host or cells: E. coli BL21 (DE3)
T1 sequence (P40337 whole entry, the tested form may be a part): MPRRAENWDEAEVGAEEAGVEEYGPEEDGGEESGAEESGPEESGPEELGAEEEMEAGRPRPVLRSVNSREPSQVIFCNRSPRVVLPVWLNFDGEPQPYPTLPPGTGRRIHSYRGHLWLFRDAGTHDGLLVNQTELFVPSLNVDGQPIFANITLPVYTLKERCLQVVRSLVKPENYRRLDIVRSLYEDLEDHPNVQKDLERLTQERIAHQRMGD
T1 sequence (Q15370 whole entry partner, the tested form may be a part): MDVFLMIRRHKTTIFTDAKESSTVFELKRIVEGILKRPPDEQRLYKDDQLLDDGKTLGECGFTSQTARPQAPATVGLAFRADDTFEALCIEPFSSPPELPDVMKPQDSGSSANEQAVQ
T1 sequence (Q15369 17-112 partner limits assumed): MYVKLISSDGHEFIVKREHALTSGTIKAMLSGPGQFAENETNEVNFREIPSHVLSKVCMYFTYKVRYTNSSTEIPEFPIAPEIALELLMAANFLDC
Method: (§1) Fluorescence polarization (FP) displacement assays with METTL3/14 (ref. [36]) and VCB[38–40] were performed following previous protocols with slight adaptations. All experiments were conducted in black Greiner 96-well half-area plates using a Tecan Spark 10 M plate reader, equipped with polarization filters coupled to a monochromator setup (λex = 480 nm, λem = 530 nm). Reaction mixtures for METTL3/14 contained 300 nM recombinant enzyme, 20 nM FAM-labelled displacement tracer (STM-FL[36]), and the test compounds at varying concentrations in 25 mM Tris HCl, pH 7.5, 100 mM NaCl, and 10% DMSO. For VCB, the mixtures contained 40 nM recombinant enzyme, 10 nM FAM-labelled probe (FAM-DEALAHyp[…], Tocris Bioscience), and the tested compounds, at varying concentrations, in 50 mM Tris, pH 7.5, 200 mM NaCl, 2 mM DTT, and 10% DMSO. […] All measurements were performed at least as technical triplicates. Polarization values (mP) were determined from polarization-specific parallel and orthogonal fluorescence intensities using the Tecan in-built calculation routine. Using GraphPad Prism 8.0.1, the FP values were normalized, and KD values were calculated using a 4-parameter Hill equation: y(% probe bound) = bottom + ([ligand]slope) × (top–bottom)/([ligand]slope + KD slope).

human VHL = target: T2, human VHL (Homo sapiens, UniProt P40337); assay: HTRF human VHL binding kit; settings: for cooperativity (HTRF): VHL affinity in presence and absence of METTL3/14 (4 μM)
T2 construct: purchased Revvity
T2 sequence (P40337 whole entry): as the sequence (P40337 whole entry, the tested form may be a part) above
T2 sequence (Q15370 whole entry partner): as the sequence (Q15370 whole entry partner, the tested form may be a part) above
T2 sequence (Q15369 whole entry partner): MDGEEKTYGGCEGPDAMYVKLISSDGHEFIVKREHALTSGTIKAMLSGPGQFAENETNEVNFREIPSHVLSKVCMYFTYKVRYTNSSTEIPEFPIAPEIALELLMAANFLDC
Method: PROTACs binding to VHL or CRBN were measured using a homogeneous time-resolved fluorescence (HTRF) human VHL or CRBN binding kit (Revvity). Samples were prepared according to the manufacturer's protocol, with compounds diluted in the provided diluent while maintaining a constant DMSO concentration with a final concentration of 1.25%. For the ternary KD determinations, METTL3/14 was added at 4 μM, corresponding to approximately a 20- to 40-fold excess of binary KD, while all other component concentrations were kept as specified in the protocol. Measurements were performed in triplicate using a Tecan Spark 10 M plate reader, recording donor and acceptor emissions at λem_donor = 620 nm and λem_acceptor = 665 nm, respectively, following excitation of the HTRF donor at λex = 320 nm. The acceptor-to-donor emission ratio was calculated as ratio = signal 665 nm/signal 620 nm. Using GraphPad Prism 8.0.1, the fluorescence values were normalized, and KD values were calculated as specified above.

MOLM-13 cells [3] = assay: Cell viability assay (CellTiter Glo 2.0); assay type: cell-based, human; settings: MOLM-13, 72 h, read-out: IC50 (cell viability inhibition)
Method: (§2) To determine cell viability, MOLM-13 cells were treated with the indicated compounds in a 1 : 1 serial dilution, with pure DMSO (final: 0.1%) as the negative control. Briefly, 1000 cells were seeded in black Greiner half-area 96-well plates and incubated for 72 h with inhibitors from DMSO stocks under standard cultivation conditions. Then, Promega CellTiter Glo 2.0 reagent was added to each well according to the manufacturer's protocols, and luminescence was measured using a Tecan Spark 10 M. Experiments were conducted in technical triplicate. Data was normalized to the DMSO control and analyzed with GraphPad Prism 8.0.1 to determine EC50 values. Synergistic effects of venetoclax and AF151 on cell MOLM-13 viability were conducted accordingly, with dilution series of both compounds analyzed using the SynergyFinder+ webtoolkit.[57]

MOLM-13 cells [4] = assay: Synergy analysis (ZIP, SynergyFinder+) of AF151 and venetoclax on cell viability; assay type: cell-based, human; settings: co-treatment with venetoclax, 72 h
Method: as §2

METTL14 mRNA = assay: RT-qPCR of METTL14 mRNA expression; assay type: cell-based, human; settings: MOLM-13, AF151 2 μM or STM2457 10 μM, 24 h and 48 h
Method: (§3) To determine mRNA expression levels of METTL3 and METTL14, MOLM-13 cells were treated in triplicate with compound 41 (AF151, 2 μM), STM2457 (10 μM), and DMSO for 24 resp. 48 h. Afterward, total RNA was extracted using the TRIzol™ reagent (Thermo Fisher Scientific) and purified with the Monarch® Spin RNA Cleanup Kit (New England Biolabs). RT-qPCR was conducted using the two-step GoTaq® RT-qPCR system (Promega) following the manufacturer's protocol. The data were normalized to the DMSO control and GAPDH housekeeping gene (ΔΔCt) using GraphPad Prism 8.0.1.

MOLM-13 cells [5] = assay: Real-time annexin V apoptosis assay; assay type: cell-based, human; settings: MOLM-13, dose-dependent, monitored over 48 h
Method: MOLM-13 cells were treated with AF151 at the indicated concentrations for 48 h, with DMSO (final: 0.1%) as the negative control. Apoptosis of technical triplicate samples was detected in real-time using the RealTime-Glo™ annexin V apoptosis assay kit (Promega), following the manufacturer's protocol. Data were plotted using GraphPad Prism 8.0.1.

METTL3/14 = target: T3, METTL3/14 (Homo sapiens, UniProt Q86U44); assay: Fluorescence polarization (FP) displacement assay with METTL3/14; assay type: binding
T3 construct: human METTL3 (UniProt: Q86U44, aa 252–580); Strep-tag II (C); made in house; host or cells: E. coli BL21 (DE3)
T3 sequence (Q86U44 252-580): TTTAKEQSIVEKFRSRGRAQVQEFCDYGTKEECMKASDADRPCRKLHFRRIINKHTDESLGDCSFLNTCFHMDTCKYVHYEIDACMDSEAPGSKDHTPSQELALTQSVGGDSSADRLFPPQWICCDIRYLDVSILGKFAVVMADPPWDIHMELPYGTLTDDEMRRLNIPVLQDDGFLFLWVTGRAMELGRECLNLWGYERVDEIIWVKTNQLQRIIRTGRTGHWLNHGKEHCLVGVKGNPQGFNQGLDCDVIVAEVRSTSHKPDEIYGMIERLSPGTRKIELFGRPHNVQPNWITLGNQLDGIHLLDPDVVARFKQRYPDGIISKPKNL
T3 sequence (Q9HCE5 108-444 partner limits assumed): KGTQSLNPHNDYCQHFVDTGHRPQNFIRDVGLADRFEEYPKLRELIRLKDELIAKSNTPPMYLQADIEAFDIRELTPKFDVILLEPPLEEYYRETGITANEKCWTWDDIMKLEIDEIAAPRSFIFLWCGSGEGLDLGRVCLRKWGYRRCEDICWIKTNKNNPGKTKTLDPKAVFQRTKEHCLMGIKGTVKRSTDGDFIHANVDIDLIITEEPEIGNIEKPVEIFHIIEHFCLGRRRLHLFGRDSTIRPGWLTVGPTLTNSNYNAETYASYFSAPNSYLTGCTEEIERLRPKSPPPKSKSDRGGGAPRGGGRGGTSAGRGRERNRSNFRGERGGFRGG
Method: as §1

Bcl-2 = assay: Immunoblotting of Bcl-2 protein levels in MOLM-13 cells; assay type: cell-based, human; settings: 2 μM, time course
Method: (§4) MOLM-13 were seeded in 12-well cell culture plates at a density of 1 × 10^6 cells per mL and treated with DMSO (final: 0.1%) or different concentrations of PROTAC degraders in DMSO at the indicated times. Treatments were conducted in biological triplicate with varying passages of MOLM-13 cells. The cells were harvested by centrifugation at 500g for 5 min and washed with PBS. The cells were lysed with RIPA lysis buffer with the addition of protease inhibitor (1× cOMPLETE), and insoluble cellular parts were separated by centrifugation (12 000g for 10 min), subsequently, the supernatant was boiled with 1× Laemmli sample buffer (Carl Roth) for 5 min at 95 °C. Proteins were separated by SDS–PAGE on 4–20% Criterion™ TGX™ Precast Protein Gels (Bio-Rad) and transferred to Amersham™ Protean® 0.45 μm nitrocellulose membrane (Cytiva) using semi-dry transfer (25 V, 1 A, Towbin buffer). […] The protein bands were detected via chemiluminescence using Pierce™ ECL western blotting substrate and a Fusion FX imaging system (Vilber). The ImageLab software (Bio-Rad) was used for band quantification.

Bcl-XL = assay: Immunoblotting of Bcl-XL protein levels in MOLM-13 cells; assay type: cell-based, human; settings: 2 μM, time course
Method: as §4

METTL14 = assay: Immunoblotting of METTL14 protein levels in MOLM-13 cells; assay type: cell-based, human
Method: as §4

Mcl-1 = assay: Immunoblotting of Mcl-1 protein levels in MOLM-13 cells; assay type: cell-based, human; settings: 2 μM, time course
Method: as §4

METTL3 [6] = target: T4, METTL3 (Homo sapiens, UniProt Q86U44); assay: Immunoblotting of METTL3 protein levels in MOLM-13 cells; assay type: cell-based
T4 construct: endogenous in cells; host or cells: MOLM-13
T4 sequence (Q86U44 whole entry): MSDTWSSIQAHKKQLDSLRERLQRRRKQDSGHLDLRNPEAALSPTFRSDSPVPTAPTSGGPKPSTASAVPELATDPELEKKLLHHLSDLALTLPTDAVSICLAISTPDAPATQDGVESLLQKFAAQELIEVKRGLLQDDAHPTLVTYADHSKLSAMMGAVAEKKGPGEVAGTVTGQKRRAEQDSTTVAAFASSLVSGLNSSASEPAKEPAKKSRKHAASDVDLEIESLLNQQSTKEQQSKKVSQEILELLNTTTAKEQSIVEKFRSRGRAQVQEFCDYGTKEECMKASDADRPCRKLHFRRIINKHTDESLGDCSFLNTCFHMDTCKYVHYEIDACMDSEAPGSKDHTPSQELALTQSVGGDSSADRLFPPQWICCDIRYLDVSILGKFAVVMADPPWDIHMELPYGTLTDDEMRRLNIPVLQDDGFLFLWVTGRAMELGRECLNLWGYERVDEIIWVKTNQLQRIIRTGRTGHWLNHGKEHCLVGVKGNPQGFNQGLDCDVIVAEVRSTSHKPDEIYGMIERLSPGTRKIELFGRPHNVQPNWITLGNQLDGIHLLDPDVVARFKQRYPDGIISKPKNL
Method: MOLM-13 were seeded in 12-well cell culture plates at a density of 1 × 10^6 cells per mL and treated with DMSO (final: 0.1%) or different concentrations of PROTAC degraders in DMSO at the indicated times. Treatments were conducted in biological triplicate with varying passages of MOLM-13 cells. The cells were harvested by centrifugation at 500g for 5 min and washed with PBS. The cells were lysed with RIPA lysis buffer with the addition of protease inhibitor (1× cOMPLETE), and insoluble cellular parts were separated by centrifugation (12 000g for 10 min), subsequently, the supernatant was boiled with 1× Laemmli sample buffer (Carl Roth) for 5 min at 95 °C. Proteins were separated by SDS–PAGE on 4–20% Criterion™ TGX™ Precast Protein Gels (Bio-Rad) and transferred to Amersham™ Protean® 0.45 μm nitrocellulose membrane (Cytiva) using semi-dry transfer (25 V, 1 A, Towbin buffer). The membrane was blocked with 5% milk (Carl Roth) in TBST buffer and incubated with the following primary antibodies: Anti-METTL3 (1 : 1000, Abcam, ab195352), anti-METTL14 (1 : 1000, Abcam, ab220030), anti-Bcl2 (1 : 1000, Cell Signaling Technology [CST], EPR16891), anti-Mcl-1 (1 : 1000, CST, 5453 T), anti-Bcl-XL (1 : 1000, CST, 2764 T), anti-vinculin (1 : 1000, CST, 13901) or anti-GAPDH (1 : 5000, CST, D17C4) overnight at 4 °C. Subsequently, the membrane was incubated for 1 h at RT with secondary antibodies: anti-rabbit (1 : 2000, VWR, NA934) or anti-mouse (1 : 2000, VWR, 102646-160). The protein bands were detected via chemiluminescence using Pierce™ ECL western blotting substrate and a Fusion FX imaging system (Vilber). The ImageLab software (Bio-Rad) was used for band quantification.

[7] = system: m^6A levels in MOLM-13 mRNA; assay: RNA m^6A quantification (colorimetric kit); assay type: cell-based, human; settings: MOLM-13, AF151 2 μM vs STM2457 10 μM, 24 and 48 h
Method: Quantification of m^6A levels upon compound treatment was conducted in analogy to the study introducing the WD6305 PROTAC.[31] MOLM-13 cells were treated with AF151 (2 μM), STM2457 (10 μM), and DMSO in triplicate for 24 and 48 h. Total RNA was isolated as specified above. PolyA mRNA was then isolated using the PolyATtract® mRNA Isolation System (Promega). m^6A levels were quantified using a colorimetric m^6A RNA methylation Assay Kit (Abcam) as specified in the manufacturer's protocol.

METTL3 mRNA = assay: RT-qPCR of METTL3 mRNA expression; assay type: cell-based, human; settings: MOLM-13, AF151 2 μM or STM2457 10 μM, 24 h and 48 h
Method: as §3

METTL3 [8] = target: METTL3; parameters: method as in PMID 33902106; settings: cited from earlier work
[9] = absence of METTL3, read-out: KD binary (VHL)
[10] = presence of METTL3/14 (12 μM), read-out: KD ternary (VHL)

Cc1ncsc1-c1ccc([C@H](C)NC(=O)[C@@H]2C[C@@H](O)CN2C(=O)[C@@H](NC(=O)CCC#Cc2ccc(CNc3cc(N4CCC5(CC4)CN(c4cc(F)c(CN6CCC(C)(C)CC6)cc4F)CC(=O)N5)ncn3)cc2)C(C)(C)C)cc1 [WD6305]
Dmax (METTL3 degradation) (METTL3 [1]): ~91%
DC50 (METTL3 [1]; read-out: DC50 (METTL3 degradation)): 140 nM
Kd ([2]; 40 nM VCB, 10 nM probe, absence of METTL3, read-out: KD E3-ligases (VHL, FP), binary): 1700 nM
Kd [2, 9]: 1760 ± 264 nM
Kd [2, 10]: 77.4 nM and 79 nM
cooperativity (HTRF) (human VHL): positive cooperativity
IC50 (MOLM-13 cells [3]; Homo sapiens): 780 nM

Cc1ncsc1-c1ccc(CNC(=O)[C@@H]2C[C@@H](O)CN2C(=O)[C@@H](NC(=O)CCc2ccc(-c3ccc(COc4cncc(C(=O)NCc5ccc6cc(CN7CCC(C)(C)CC7)[nH]c6c5)c4)cc3)cc2)C(C)(C)C)cc1 [compound 41]
maximum ZIP synergy score (MOLM-13 cells [4]): 28.87
mean ZIP synergy score (MOLM-13 cells [4]): 3.38
METTL14 mRNA level (ΔΔCt) (METTL14 mRNA): no significant changes
time to apoptosis induction (MOLM-13 cells [5]): approximately 10 h
Kd [2, 9]: 363 nM
Kd [2, 10]: 79.9 nM and 77 nM
Kd (METTL3/14): 159 ± 26 nM
effect on Bcl-2 protein level (Bcl-2): time-dependent reduction
t1/2 of Bcl-2 protein level decrease (Bcl-2): 18 h
Kd (human VHL; HTRF Human VHL Binding Kit, binary, read-out: KD E3-ligases (VHL, HTRF)): 740 ± 113 nM
cooperativity (HTRF) (human VHL): positive cooperativity
effect on Bcl-XL protein level (Bcl-XL): but not Bcl-XL
METTL14 protein level relative to DMSO (transient increase) (METTL14; 2 μM, after 1 h, MOLM-13): ~150%
METTL14 degradation (Western blot) (METTL14; MOLM-13, 1 μM, 16 h): significant degradation
effect on Mcl-1 protein level (Mcl-1): time-dependent reduction
time for which maximal METTL3 degradation is maintained (METTL3 [6]; 2 μM, time course, MOLM-13): at least 48 h
time of maximal METTL3 degradation effect (METTL3 [6]; 2 μM, time course, MOLM-13): 24 h
METTL3 reduction (METTL3 [6]; 2 μM, within the first 6 h of treatment, MOLM-13): over 50%
METTL3 degradation (Western blot) (METTL3 [6]; MOLM-13, 1 μM, 16 h): significant degradation
concentration of hook effect (METTL3 degradation decreased) (METTL3 [6]; MOLM-13, 16 h): > 5 µM
DC50 (METTL3 [6]; MOLM-13, 16 h treatment, read-out: DC50 (METTL3 degradation)): 430 nM
METTL3 degradation on co-treatment with MLN4924 (METTL3 [6]; MOLM-13, MLN4924 1 μM): suppressed METTL3 degradation
Dmax at 2.5 µM (METTL3 [6]; MOLM-13, MOLM-13, 16 h, maximal degradation occurred at 2.5 μM): 95%
METTL3 degradation on co-treatment with STM2457 (METTL3 [6]; MOLM-13, STM2457 20 μM): inhibited degradation
METTL3 degradation on co-treatment with VH032 (METTL3 [6]; MOLM-13, VH032 10 μM): suppressed METTL3 degradation
METTL3 degradation on co-treatment with bortezomib (METTL3 [6]; MOLM-13, bortezomib 1 μM): suppressed METTL3 degradation
global m^6A level reduction in mRNA [7]: more pronounced m^6A reduction
METTL3 mRNA level (ΔΔCt) (METTL3 mRNA): no significant changes
IC50 (MOLM-13 cells [3]; Homo sapiens): 450 nM

STM2457 [reference compound]
METTL14 mRNA level (ΔΔCt) (METTL14 mRNA): no significant changes
METTL3 degradation (Western blot screening) (METTL3 [6]; MOLM-13, 0.1-10 μM, 16 h): do not func?on as METTL3 degraders
METTL3 mRNA level (ΔΔCt) (METTL3 mRNA): no significant changes
Kd (METTL3 [8]): 1.4 nM
IC50 (MOLM-13 cells [3]): 1820 nM
